Literature values in patent publication US20240027453A1, “METHOD FOR DETECTION AND QUANTITATIVE MONITORING OF INFECTIONS WITH HERPESVIRUSES” (The Trustees of Princeton University, priority 2020, published 2024).

Columns and labels:
[1] = test system: HCMV; settings: cited from earlier work
[2] = test system: HCMV; settings: in MRC5 cells; cited from earlier work

SMILES	decrease in HCMV titers ([1]; […] CAY10602, 50 μM trans-Resveratrol)	HCMV titers [1]	IC50 [2]
Nc1c(S(=O)(=O)c2ccccc2)c2nc3ccccc3nc2n1-c1ccc(F)cc1 [CAY10602]	~50%	decreased	
Nc1ccn(C[C@@H](CO)OCP(=O)(O)O)c(=O)n1 [CDV, cidofovir]			~500 nM
